# Laboratory results as given in ChEMBL document CHEMBL1201862, “PubChem BioAssay data set” (2004).
# Active and inactive are the calls of the source. Cut-off read from the data, not from the text of the source, for most assays here: actives have a measured EC50 and inactives only a lower limit.
# How the values were obtained:
# [1] = system: Streptococcus; assay: Group A Streptococcus viability loss, dose response, counter-screen for streptokinase expression inhibitor project, luminescence, BacTiterGlo (AID 1915); type: functional, organism-based;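 note: potency for reduction of bacterial viability or growth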
# [2] = target: T1, Streptokinase A (Streptococcus pyogenes serotype M1, UniProt P10520); assay: S. pyogenes streptokinase expression inhibitors, potency, dose response, plasminogen activation absorbance, OD405 (AID 1914); type: functional, Streptococcus pyogenes M1 GAS;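 note: secreted streptokinase activity via plasminogen activation per viability signal from cell pellet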
# T1 sequence (P10520 whole entry): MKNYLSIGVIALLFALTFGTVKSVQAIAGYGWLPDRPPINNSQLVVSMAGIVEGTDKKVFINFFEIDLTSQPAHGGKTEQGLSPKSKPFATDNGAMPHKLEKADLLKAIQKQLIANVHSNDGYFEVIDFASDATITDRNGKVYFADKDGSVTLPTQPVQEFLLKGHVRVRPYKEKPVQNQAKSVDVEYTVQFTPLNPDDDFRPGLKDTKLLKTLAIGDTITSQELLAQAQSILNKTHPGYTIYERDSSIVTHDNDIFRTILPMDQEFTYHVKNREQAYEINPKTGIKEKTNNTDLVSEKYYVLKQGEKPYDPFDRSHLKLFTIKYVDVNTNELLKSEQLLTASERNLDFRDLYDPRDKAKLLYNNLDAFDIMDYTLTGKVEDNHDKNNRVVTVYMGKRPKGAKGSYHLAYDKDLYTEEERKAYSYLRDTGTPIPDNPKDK
# [3] = system: Streptococcus sp. 'group A'; assay: growth inhibition of control SK(-) GAS strain, dose response, counter-screen for streptokinase expression inhibitor project, luminescence, kanamycin, BacTiterGlo, confirmation (AID 1900); type: functional, organism-based
# [4] = inhibitors of SNCA 5'UTR-driven reporter translation, confirmation, H4 neuroglioma cells, luminescence (AID 1988); type: functional, cell-based
# [5] = Luminescence Cell-Based Dose Response HTS to Identify Inhibitors of 5'UTR Stem-Loop Driven Prion Protein mRNA Translation in H4 Neuroglioblastoma Cells. [Related pubchem assays: 1827 (Project Summary), 1813 (Primary HTS)]; type: functional
# [6] = inhibitors of firefly luciferase expression or activity, dose response, H4 neuroglioma cells, luminescence (AID 1990); type: functional, cell-based
# [7] = target: T2, Protein RecA (Mycobacterium tuberculosis, UniProt P9WHJ3); assay: Fluorescence Cell-Free Homogeneous Dose Retest to Identify Inhibitors of RecA-Intein Splicing Activity. [Related pubchem assays (depositor defined):AID2097, AID2223, AID489010, AID492950]; type: functional
# T2 sequence (P9WHJ3 whole entry): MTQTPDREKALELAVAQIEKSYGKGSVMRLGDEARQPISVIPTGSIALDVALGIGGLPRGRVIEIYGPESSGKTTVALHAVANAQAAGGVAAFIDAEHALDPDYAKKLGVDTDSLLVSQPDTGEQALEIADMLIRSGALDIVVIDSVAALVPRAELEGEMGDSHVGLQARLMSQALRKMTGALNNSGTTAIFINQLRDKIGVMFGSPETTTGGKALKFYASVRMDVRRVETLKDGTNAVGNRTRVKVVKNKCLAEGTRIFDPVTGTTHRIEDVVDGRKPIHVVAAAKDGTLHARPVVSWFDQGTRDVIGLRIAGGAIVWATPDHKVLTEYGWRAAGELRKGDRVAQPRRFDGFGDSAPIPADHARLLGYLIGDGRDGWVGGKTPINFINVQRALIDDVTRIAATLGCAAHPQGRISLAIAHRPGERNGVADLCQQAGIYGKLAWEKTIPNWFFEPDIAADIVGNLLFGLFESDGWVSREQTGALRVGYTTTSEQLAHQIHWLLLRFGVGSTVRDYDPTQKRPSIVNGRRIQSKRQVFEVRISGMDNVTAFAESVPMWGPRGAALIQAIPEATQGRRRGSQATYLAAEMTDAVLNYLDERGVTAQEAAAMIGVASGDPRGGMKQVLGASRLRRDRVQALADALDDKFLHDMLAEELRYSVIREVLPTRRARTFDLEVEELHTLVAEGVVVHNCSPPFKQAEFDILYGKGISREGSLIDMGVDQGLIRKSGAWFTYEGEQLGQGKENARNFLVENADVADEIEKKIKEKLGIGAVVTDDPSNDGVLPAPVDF
# [8] = target: T3, Replicative DNA helicase DnaB (Mycobacterium tuberculosis, UniProt P9WMR3); assay: DnaB intein splicing inhibitors, dose response, biochemical, cell-free fluorescence (AID 449749); type: functional
# T3 sequence (P9WMR3 whole entry): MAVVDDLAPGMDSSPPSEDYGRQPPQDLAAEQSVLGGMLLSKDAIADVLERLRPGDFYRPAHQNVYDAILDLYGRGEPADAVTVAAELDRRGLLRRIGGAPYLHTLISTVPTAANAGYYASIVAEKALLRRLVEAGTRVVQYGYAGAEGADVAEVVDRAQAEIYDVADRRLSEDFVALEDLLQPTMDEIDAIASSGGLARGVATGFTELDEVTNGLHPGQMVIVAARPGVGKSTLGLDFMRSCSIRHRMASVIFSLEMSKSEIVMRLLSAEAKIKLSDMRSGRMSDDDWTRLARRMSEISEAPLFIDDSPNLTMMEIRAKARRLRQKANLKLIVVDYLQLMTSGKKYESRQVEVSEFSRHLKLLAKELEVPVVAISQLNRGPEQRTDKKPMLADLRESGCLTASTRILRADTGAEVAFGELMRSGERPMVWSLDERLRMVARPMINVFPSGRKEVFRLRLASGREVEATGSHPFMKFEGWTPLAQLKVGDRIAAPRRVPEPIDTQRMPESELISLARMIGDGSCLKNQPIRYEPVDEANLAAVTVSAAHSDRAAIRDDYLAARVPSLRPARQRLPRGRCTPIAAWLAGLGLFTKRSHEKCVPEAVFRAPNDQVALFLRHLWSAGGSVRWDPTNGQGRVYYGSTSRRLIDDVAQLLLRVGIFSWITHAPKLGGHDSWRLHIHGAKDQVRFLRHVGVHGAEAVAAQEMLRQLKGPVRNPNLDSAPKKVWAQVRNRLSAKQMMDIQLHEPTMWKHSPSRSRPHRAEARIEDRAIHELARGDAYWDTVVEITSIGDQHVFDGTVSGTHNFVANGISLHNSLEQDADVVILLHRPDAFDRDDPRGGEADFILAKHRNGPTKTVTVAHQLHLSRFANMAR
# [9] = target: Large T antigen (Simian virus 40, UniProt P03070); type: functional, Betapolyomavirus macacae;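 note: Confirmatory-stage PubChem screen for compounds that inhibit SV40 T antigen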
# [10] = target: T4, Corticotropin-releasing factor receptor 2/Corticotropin-releasing factor-binding protein (Homo sapiens, UniProt P24387+Q13324); assay: Dose Response confirmation of uHTS hits for small molecule antagonists of the CRF-binding protein and CRF-R2 receptor complex.; type: functional; settings: read-out: IC50_Mean
# T4 sequence (Q13324 whole entry): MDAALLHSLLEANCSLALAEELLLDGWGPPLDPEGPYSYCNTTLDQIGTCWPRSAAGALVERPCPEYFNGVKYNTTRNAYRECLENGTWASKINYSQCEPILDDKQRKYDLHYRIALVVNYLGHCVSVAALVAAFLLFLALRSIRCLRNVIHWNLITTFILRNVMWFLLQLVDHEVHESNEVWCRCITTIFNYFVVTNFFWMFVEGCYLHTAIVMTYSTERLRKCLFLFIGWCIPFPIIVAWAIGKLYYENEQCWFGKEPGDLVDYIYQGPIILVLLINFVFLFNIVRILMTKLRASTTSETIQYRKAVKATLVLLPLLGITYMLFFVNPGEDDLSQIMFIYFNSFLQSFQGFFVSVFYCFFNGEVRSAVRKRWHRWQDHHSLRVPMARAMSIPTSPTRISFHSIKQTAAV
# T4 sequence (P24387 whole entry): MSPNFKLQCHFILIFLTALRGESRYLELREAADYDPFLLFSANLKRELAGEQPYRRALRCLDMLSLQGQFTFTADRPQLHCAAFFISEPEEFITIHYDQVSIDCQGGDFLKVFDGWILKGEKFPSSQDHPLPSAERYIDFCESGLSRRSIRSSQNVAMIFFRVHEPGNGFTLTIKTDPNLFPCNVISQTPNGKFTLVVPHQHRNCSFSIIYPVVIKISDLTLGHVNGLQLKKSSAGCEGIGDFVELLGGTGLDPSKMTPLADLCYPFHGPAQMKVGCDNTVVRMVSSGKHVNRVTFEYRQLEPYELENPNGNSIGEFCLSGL
# [11] = target: T4, Corticotropin-releasing factor receptor 2/Corticotropin-releasing factor-binding protein; assay: activators of CRF receptor 2 with binding protein – uHTS hits, confirmation (AID 602473); type: functional; settings: read-out: EC50_Mean
# Sequence of Large T antigen (P03070 whole entry): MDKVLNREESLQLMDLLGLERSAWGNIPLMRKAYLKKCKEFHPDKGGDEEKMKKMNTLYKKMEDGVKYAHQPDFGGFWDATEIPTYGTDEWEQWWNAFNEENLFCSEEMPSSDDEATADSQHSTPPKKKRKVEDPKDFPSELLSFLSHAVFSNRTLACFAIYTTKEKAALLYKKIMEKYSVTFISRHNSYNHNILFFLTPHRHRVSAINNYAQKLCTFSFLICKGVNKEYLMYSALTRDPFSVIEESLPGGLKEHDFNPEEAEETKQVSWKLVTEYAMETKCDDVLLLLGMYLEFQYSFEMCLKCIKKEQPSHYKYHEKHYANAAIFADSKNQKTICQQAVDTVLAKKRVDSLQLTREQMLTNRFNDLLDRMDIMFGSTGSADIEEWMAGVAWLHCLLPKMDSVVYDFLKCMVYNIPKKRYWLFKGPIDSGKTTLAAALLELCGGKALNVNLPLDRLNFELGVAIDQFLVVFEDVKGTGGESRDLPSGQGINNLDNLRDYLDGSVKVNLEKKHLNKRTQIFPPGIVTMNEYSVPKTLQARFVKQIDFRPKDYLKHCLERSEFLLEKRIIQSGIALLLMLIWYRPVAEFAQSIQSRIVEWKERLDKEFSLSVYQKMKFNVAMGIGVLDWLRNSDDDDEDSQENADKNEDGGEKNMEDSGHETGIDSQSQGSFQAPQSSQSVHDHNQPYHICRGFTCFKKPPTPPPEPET
compound,measurement,setting,value
CCCOc1ccc(Cc2c(Cl)nc(SC)nc2OC)cc1,EC50,[1],> 150 µM (not active)
same,EC50,[2],57.2 µM (active)
O=C(Nc1ccn(Cc2c(F)c(F)cc(F)c2F)n1)c1ccc(COc2ccc(Cl)cc2Cl)o1,EC50,[1],> 150 µM (not active)
same,EC50,[2],> 150 µM (not active)
same,EC50,[3],36.3 µM (active)
CN(C)S(=O)(=O)c1ccc(Cl)c(-c2nnc3n2CCCCC3)c1,EC50,[4],> 120 µM (not active)
same,EC50,[5],> 120 µM (not active)
same,EC50,[6],> 120 µM (not active)
O=C(Cc1csc(NC(=O)Nc2cccc(Cl)c2)n1)NCc1ccccn1,EC50,[1],> 150 µM (not active)
same,EC50,[2],> 150 µM (not active)
same,EC50,[3],7.28 µM (active)
CCCc1nn(C)c2c1C(c1ccncc1)C(C#N)=C(N)O2 (stereo not given),EC50,[7],3.79 µM (active)
same,AC50,[8],9.7 µM (active)
Cc1nc2c(c(N3CCOCC3)n1)OCC(=O)N2,EC50,[4],20.7 µM (active)
same,EC50,[5],> 120 µM (not active)
same,EC50,[6],42.6 µM (active)
COc1ccc(Br)cc1S(=O)(=O)Nc1nnc[nH]1,EC50,[2],> 150 µM (not active)
CCOC(=O)c1c(C)c(C(=O)Nc2ccc(N(C)C)cc2)c(C)n1CC,IC50,[9],15.1 µM (active)
COc1cccc(-c2cc(C(F)(F)F)nc(N3CCC(C)CC3)n2)c1,EC50,[1],13.2 µM (active)
same,EC50,[2],97.6 µM (inconclusive)
same,EC50,[3],5.93 µM (active)
CN(C)c1ccc(NC(=O)CN2CCN(c3ccc(F)cc3)CC2)cc1,IC50,[9],5.83 µM (active)
Cc1ccc(NC(=O)CSc2ncc(-c3ccccc3)n2C(=O)c2ccccc2)cc1,EC50,[7],1.77 µM (active)
same,AC50,[8],2.56 µM (active)
NNc1nnc(S)n1N,EC50,[7],86.4 µM (active)
same,AC50,[8],> 380 µM (inactive)
Cc1cccc(NCCC#N)c1,EC50,[4],> 120 µM (not active)
same,EC50,[5],> 120 µM (not active)
same,EC50,[6],> 120 µM (not active)
O=C(Nc1ccc(O)cc1)/C(=C/c1ccco1)NC(=O)c1ccccc1,IC50,[9],11 µM (active)
CCOC(=O)c1c(C)n[nH]c1NCc1ccccc1,EC50,[4],> 120 µM (not active)
same,EC50,[5],> 120 µM (not active)
same,EC50,[6],26 µM (active)
Cc1ccc(S(=O)(=O)N2CCOCC2)cc1C(=O)NC1CCN(Cc2ccccc2)CC1,IC50,[10],> 47.1 µM (inactive)
same,EC50,[11],> 53 µM (inactive)
